According to US20170137855A1, “RECOMBINANT CELLS AND METHODS FOR NONPHOSPHORYLATIVE METABOLISM” (REGENTS OF THE UNIVERSITY OF MINNESOTA, priority 2015, published 2017):
Several values for one entry are separate records, joined by “and”; a condition that tells them apart may be missing. Equal values may be shown once.

Legend:
[1] = molecular target: T1, Burkholderia xenovorans LB400 2-keto-3-deoxy-D-xylonate dehydratase (DR64_8450) (Paraburkholderia xenovorans, UniProt Q13FD1); assay: B. xenovorans 2-keto-3-deoxy-D-xylonate dehydratase, coupled assay with KGSADH; assay type: biochemical
T1 construct: coupled with D-xylonate dehydratase and KGSADH
T1 sequence (Q13FD1 1-395): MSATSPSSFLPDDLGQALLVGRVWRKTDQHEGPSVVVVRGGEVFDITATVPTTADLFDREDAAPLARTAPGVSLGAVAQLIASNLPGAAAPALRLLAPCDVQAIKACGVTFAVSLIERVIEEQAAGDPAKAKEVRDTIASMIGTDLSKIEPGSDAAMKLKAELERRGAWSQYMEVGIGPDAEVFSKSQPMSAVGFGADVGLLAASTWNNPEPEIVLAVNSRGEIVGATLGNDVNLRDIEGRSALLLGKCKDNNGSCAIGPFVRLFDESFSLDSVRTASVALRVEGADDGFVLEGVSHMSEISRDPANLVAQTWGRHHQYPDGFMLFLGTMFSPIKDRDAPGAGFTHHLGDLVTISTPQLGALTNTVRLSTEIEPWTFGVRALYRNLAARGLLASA
Experimental: (§1) 2-Keto-3-deoxy-D-xylonate dehydratase (XylX/DR64-8450), 2-keto-3-deoxy-L-arabonate dehydratase (AraD) and 5-keto-4-deoxy-D-glucarate dehydratase (YcbC): Enzyme activities of XylX, DR64-8450, AraD and YcbC were assayed spectrophotometrically in a coupled assay with the corresponding previous dehydratase and 2-ketoglutaric semialdehyde dehydrogenase (KGSADH) as previously described (Watanabe et al., 2006. J Biol. Chem. 281:33521-33536). […] The reaction was initiated by adding an appropriate amount of 2-keto-3-deoxy-D-xylonate dehydratase (XylX/DR64-8450)/2-keto-3-deoxy-L-arabonate dehydratase (AraD)/5-keto-4-deoxy-D-glucarate dehydratase (YcbC), and the increasing absorbance at 340 nm caused by NADH produced in the reaction was monitored.

[2] = molecular target: T2, Caulobacter crescentus 2-keto-3-deoxy-D-xylonate dehydratase (XylX) (Caulobacter vibrioides, UniProt A0A0H3C4T2); assay: C. crescentus 2-keto-3-deoxy-D-xylonate dehydratase, coupled assay with KGSADH; assay type: biochemical; details: substrate from 0-20 mM D-xylonate, 1 mM NAD+, pH 7.5, 25° C.
T2 construct: coupled with XylD and KGSADH; BlpI site removed in gene
T2 sequence (A0A0H3C4T2 1-384): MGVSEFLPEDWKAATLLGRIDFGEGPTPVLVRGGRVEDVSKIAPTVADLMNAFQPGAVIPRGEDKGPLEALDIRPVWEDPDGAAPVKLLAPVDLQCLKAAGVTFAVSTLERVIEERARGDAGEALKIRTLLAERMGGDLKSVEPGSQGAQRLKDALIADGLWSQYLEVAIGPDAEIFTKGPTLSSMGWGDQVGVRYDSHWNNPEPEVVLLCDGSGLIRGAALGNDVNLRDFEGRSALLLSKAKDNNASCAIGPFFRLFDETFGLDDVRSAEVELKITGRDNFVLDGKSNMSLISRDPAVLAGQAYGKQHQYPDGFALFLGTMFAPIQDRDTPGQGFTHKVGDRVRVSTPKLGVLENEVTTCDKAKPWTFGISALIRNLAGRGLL
Experimental: as §1

[3] = molecular target: T3, Lactococcus lactis 2-ketoacid decarboxylase Kivd, wild type (Lactococcus lactis, UniProt Q684J7); assay: Kivd activity inferred from absence of BTO accumulation with L-arabinose as substrate; assay type: cell-based; details: indicated by no accumulation of BTO using L-arabinose
T3 construct: also expressed from pBDO-5 in E. coli fermentation (A5)
T3 sequence (Q684J7 1-548): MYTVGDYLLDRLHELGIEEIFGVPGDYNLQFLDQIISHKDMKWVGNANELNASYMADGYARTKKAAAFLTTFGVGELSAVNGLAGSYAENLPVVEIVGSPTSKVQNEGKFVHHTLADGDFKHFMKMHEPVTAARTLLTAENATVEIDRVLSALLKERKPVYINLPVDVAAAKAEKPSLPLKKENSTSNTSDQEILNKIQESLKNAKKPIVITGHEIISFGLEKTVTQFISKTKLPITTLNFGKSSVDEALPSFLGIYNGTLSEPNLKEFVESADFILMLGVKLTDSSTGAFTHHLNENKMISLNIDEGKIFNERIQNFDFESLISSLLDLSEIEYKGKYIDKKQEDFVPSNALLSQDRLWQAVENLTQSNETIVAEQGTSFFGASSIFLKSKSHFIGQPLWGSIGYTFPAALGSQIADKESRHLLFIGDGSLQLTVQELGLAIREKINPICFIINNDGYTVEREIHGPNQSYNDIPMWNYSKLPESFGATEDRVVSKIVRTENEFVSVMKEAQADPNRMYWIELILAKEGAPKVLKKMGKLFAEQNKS
Experimental: 125 ml conical flasks with 0.2 g CaCO3 were autoclaved and dried to perform all small-scale fermentations. […] 200 μl of overnight cultures incubated in 2×YT medium were transferred into the flasks and placed in a shaker at a speed of 250 rpm. After adding 0.1 mM isopropyl-β-D-thiogalactoside (IPTG), the flasks were sealed by parafilm and the fermentation was performed for 48 hours at 30° C. The fermentation products were measured by HPLC.

[4] = molecular target: T4, Bacillus subtilis 5-keto-4-deoxy-D-glucarate dehydratase (YcbC) (Bacillus subtilis, UniProt P42235); assay: 5-keto-4-deoxy-D-glucarate dehydratase, coupled assay with KGSADH; assay type: biochemical; details: substrate from 0-20 mM D-galactarate, pH 7.5, 25° C.
T4 construct: His; made in house; host or cells: E. coli BL21
T4 sequence (P42235 whole entry): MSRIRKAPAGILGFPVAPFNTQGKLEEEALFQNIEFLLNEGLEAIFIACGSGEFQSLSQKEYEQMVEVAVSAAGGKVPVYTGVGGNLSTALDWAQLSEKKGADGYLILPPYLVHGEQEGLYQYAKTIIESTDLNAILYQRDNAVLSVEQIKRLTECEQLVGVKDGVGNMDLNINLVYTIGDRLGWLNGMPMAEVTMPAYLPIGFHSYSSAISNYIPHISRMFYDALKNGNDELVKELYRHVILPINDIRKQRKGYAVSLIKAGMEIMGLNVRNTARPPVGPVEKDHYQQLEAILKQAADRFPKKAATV
Experimental: as §1

[5] = molecular target: T5, Burkholderia xenovorans LB400 D-xylose dehydrogenase (DR64_8447) (Paraburkholderia xenovorans, UniProt Q13FC8); assay: B. xenovorans D-xylose dehydrogenase, NADH generation at 340 nm; assay type: biochemical; details: D-xylose 0 to 10 mM, 1 mM NAD+
T5 construct: gene from LB400 genomic DNA
T5 sequence (Q13FC8 1-268): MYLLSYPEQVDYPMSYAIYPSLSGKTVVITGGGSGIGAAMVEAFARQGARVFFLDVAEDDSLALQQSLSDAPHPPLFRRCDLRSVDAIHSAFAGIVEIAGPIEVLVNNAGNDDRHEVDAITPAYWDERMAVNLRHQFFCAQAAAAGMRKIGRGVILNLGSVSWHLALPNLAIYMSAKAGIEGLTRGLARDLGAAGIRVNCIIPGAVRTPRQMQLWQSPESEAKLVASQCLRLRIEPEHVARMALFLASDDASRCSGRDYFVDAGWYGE
Experimental: (§2) A series of enzymatic assays were conducted to estimate the initial activity as a function of starting substrate concentration. […] Kinetic constants (kcat/Km) for following enzymes were calculated with the same method.

[6] = molecular target: T6, Caulobacter crescentus D-xylose dehydrogenase (XylB) (Caulobacter vibrioides, UniProt B8H1Z0); assay: C. crescentus D-xylose dehydrogenase, NADH generation at 340 nm; assay type: biochemical; details: D-xylose 0 to 10 mM, 1 mM NAD+
T6 construct: His; made in house; host or cells: E. coli BL21
T6 sequence (B8H1Z0 1-248): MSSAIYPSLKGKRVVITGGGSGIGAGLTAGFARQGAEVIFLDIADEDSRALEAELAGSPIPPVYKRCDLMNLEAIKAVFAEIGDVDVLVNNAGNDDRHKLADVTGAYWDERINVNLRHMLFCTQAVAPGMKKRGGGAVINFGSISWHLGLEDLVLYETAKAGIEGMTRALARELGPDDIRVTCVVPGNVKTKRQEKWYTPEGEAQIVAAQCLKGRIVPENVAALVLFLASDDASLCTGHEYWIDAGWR
Experimental: as §2

[7] = 100 mM Tris-HCl, 5 mM MgCl2, pH 7.5, 30° C.

O=C(O)C(=O)C[C@H](O)CO [2-keto-3-deoxy-D-xylonate]
kcat ([1]; coupled assay, substrate from 0-20 mM D-xylonate, 1 mM NAD+, pH 7.5, 25° C.): 4.7 s⁻¹ | kcat compared to XylX of C. crescentus ([1]; higher kcat (4.7 s^−1) vs 0.53 s^−1): 9 fold | kcat [2]: 0.53 s⁻¹ | kcat/Km [2]: 260 M⁻¹ s⁻¹

O=C(O)C(=O)C[C@@H](O)CO [2-keto-3-deoxy-L-arabonate]
Kivd activity on 2-keto-3-deoxy-L-arabonate [3]: not active

O=C(O)C(=O)C[C@H](O)[C@@H](O)C(=O)O [5-keto-4-deoxy-D-glucarate]
specific constant (kcat/Km), compared within D-galacturonate pathway [4]: lowest specific constant

OC1OC[C@@H](O)[C@H](O)[C@H]1O (stereo partly drawn) [D-xylose]
Km [5, 7]: 1970 ± 120 µM | kcat ([5]; pH 7.5, 30° C.): 49.9 ± 4.2 s⁻¹ | Km [6, 7]: 850 ± 80 µM | kcat ([6]; pH 7.5, 30° C.): 12.1 s⁻¹ and 12.1 ± 2.2 s⁻¹
